Assay results from the NIST ThermoML archive (doi:10.1021/acs.jced.6b00210).

Experiment: xn = mol fraction of the nth substance listed
Conditions: 100 kPa, Liquid; for viscosity: Concentric cylinders viscometry; for mass density: Vibrating tube method

Nc1ccccc1 [aniline] + CCC(C)O
Conditions | mass density, 293.15 K [kg/m3] | mass density, 298.15 K [kg/m3] | mass density, 303.15 K [kg/m3] | viscosity, 293.15 K [mPa·s] | viscosity, 298.15 K [mPa·s] | viscosity, 303.15 K [mPa·s] | viscosity, 308.15 K [mPa·s]
x1 = 0.0813 | 825 | 820.7 | 816.3 | 3.32 | 2.77 | 2.3 | 1.94
x1 = 0.16 | 842.5 | 838.1 | 833.6 | 3.07 | 2.55 | 2.12 | 1.81
x1 = 0.24 | 860.1 | 855.7 | 851.1 | 2.88 | 2.39 | 1.97 | 1.69
x1 = 0.3502 | 884.2 | 879.7 | 875.1 | 2.71 | 2.25 | 1.83 | 1.56
x1 = 0.44 | 903.7 | 899.2 | 894.5 | 2.66 | 2.21 | 1.78 | 1.51
x1 = 0.5601 | 929.6 | 924.9 | 920.4 | 2.72 | 2.24 | 1.77 | 1.5
x1 = 0.65 | 948.8 | 944.1 | 939.6 | 2.81 | 2.33 | 1.83 | 1.55
x1 = 0.74 | 967.8 | 963.1 | 958.6 | 3 | 2.52 | 1.97 | 1.69
x1 = 0.8499 | 990.8 | 986.2 | 981.8 | 3.4 | 2.92 | 2.32 | 2.01
x1 = 0.94 | 1009.4 | 1004.9 | 1000.6 | 3.89 | 3.38 | 2.77 | 2.43
x1 = 1 | 1021.7 | 1017.4 | 1013.2 | 4.37 | 3.8 | 3.13 | 2.75
